Values after ≈ are worked out from the molar mass of the structure shown.
Key:
IL-1β = test: Inhibition of IL-1β secretion from human PBMC stimulated with LPS; assay type: cell-based; conditions: 1 μg/ml LPS, 24 h; for IC50: read-out: IC50 IL-1β release
Protocol: (§1) 5.2 Inhibition of IL-β, IL-6, or TNF-α Secretion from Human Peripheral Blood […] (PBMC) Stimulated with LPS PBMC (5×10^5 cells) suspended in RPMI 1640 culture medium supplemented with 1% penicillin and 1% streptomycin are pre-incubated for 30 min. at 37° C. with the test compound, reference compound, or culture medium (control). Thereafter, 1 μg/ml LPS is added to induce the cytokine secretion and the mixture is incubated for 24 h at 37° C. For basal control measurements, LPS is omitted from the incubation medium. Following incubation, the samples are centrifuged at 250×g for 5 min. at 4° C. and the supernatants are collected. The amount of secreted IL-1β, 1L-6, or TNF-α present in the supernatant is quantified using an EIA detection kit (R&D systems). The photometric measurements are made with a microplate reader (Ultra, Tecan). The results are expressed as a percent inhibition of the control secretion induced by LPS. The standard inhibitory reference compounds for IL-1β, IL-6 or TNF-α are cycloheximide and dexamethasone, respectively, which are tested in each experiment at several concentrations to obtain an inhibition curve from which their IC50 values are calculated (Schindler, R., et al., (1990). “Correlations and interactions in the production of interleukin-6 (IL-6), IL-1, and tumor necrosis factor (TNF) in human blood mononuclear cells: IL-6 suppresses IL-1 and TNF”, Blood, 75:40. These procedures were used to determine the inhibition (and selectivity) of cytokine release by representative compounds […] shown in Table 2. Thus, the invention provides antibiotics that are generically called borinic acid complexes, most preferably derived from disubstituted borinic acids.

TNF-α = test: Inhibition of TNF-α secretion from human PBMC stimulated with LPS; assay type: cell-based; conditions: 1 μg/ml LPS, 24 h; for IC50: read-out: IC50 TNF-α release
Protocol: as §1

[1] = system: S. epidermidis ATCC 12228; test: MIC determination (NCCLS broth microdilution), S. epidermidis; assay type: cell-based; conditions: lowest concentration with >=80% inhibition, 24 h at 34° C.
Protocol: (§2) The compounds of this invention are evaluated for their antibacterial activity as per the guidelines and procedures prescribed by the National Committee for Clinical Laboratory Standards (NCCLS) (cf., NCCLS Document M7-A3, 1993-Antimicrobial Susceptibility Testing). 5.1.1 Protocol for Determining Minimum Inhibitory Concentration (MIC) A useful protocol for MIC determination is as follows: • 1. Approximately 2.5 mg of the compounds to be tested was weighed into cryovials. • 2. 5 mg/ml stock solutions were made by adding DMSO to the samples accordingly. • 3. 256 μg/ml working solutions were made by using the 5 mg/ml stock solutions and adding sterile distilled water accordingly. • 4. A Beckman 2000 Automated Workstation was programmed to load 96-well plates with broth and compounds as follows: • 100 μl of the appropriate broth was added to columns 1-11. • 200 μl of the appropriate broth was added to column 12. • 100 μl of compounds at the 256 μg/ml working solution were added to column 1 (one compound per row). • Two-fold serial dilutions were done from columns 1-10. • Column 11 served as the growth control. • 5. The ten-organism panel was plated from stock vials stored at −80° C. and incubated for 24 hours at 34° C. The organisms were then sub-cultured and incubated for 24 hours at 34° C. • The inoculums were first prepared in sterile distilled water with a target of 0.09-0.11 absorbance at 620 nm wavelength. • A 1/100 dilution was made into the appropriate broth. • 100 μl of broth with organism was added to columns 1-11. • Column 12 served as the blank control. • 6. The completed 96 well plates were incubated for 24 hours at 34° C. The 96-well plates were then read using a Beckman Automated Plate Reader at 650 nm wavelength. The MIC was determined through calculations involving the growth control (column 11) and blank control (column 12). 5.1.2 MIC Calculation The absorbance readings from the Biomek Automated Plate Reader are used to determine the percent inhibition for each test well. The formula used is as follows: [formula] • ABSTest: Absorbance of the test well. • ABSblank: Absorbance of the blank well in the same row as the test well (column 12). • ABSgrowth: Mean absorbance of the growth control wells (column 11). […] These procedures were used to obtain the representative microbiological data for the compounds 10 to 19 shown in Table 1 as MIC (Minimum Inhibitory Concentration) with the values expressed as micrograms per milliliter (mcg/ml).

S. aureus ATCC 29213 = test: MIC determination (NCCLS broth microdilution), S. aureus; assay type: cell-based; conditions: lowest concentration with >=80% inhibition, 24 h at 34° C.
Protocol: as §2

P. acnes ATCC 6919 = test: MIC determination (NCCLS broth microdilution), P. acnes; assay type: cell-based, Propionibacterium acnes; conditions: lowest concentration with >=80% inhibition, 24 h at 34° C.
Protocol: as §2

IL-6 = test: Inhibition of IL-6 secretion from human PBMC stimulated with LPS; assay type: cell-based; conditions: 1 μg/ml LPS, 24 h; for IC50: read-out: IC50 IL-6 release
Protocol: as §1

IL-8 = test: Inhibition of IL-8 pro-inflammatory cytokine release; assay type: cell-based
Source text: The selective inhibition of the release of pro-inflammatory cytokines is shown in Table 2 with representative compounds 10, 11, and 30-35.

| Structure (SMILES) | Inhibition (%) at 25 μM IL-1β release (IL-1β) | Inhibition (%) at 25 μM TNF-α release (TNF-α) | MIC S. epidermidis ATCC 12228 [1] [µg/mL] | MIC S. aureus ATCC 29213 (S. aureus ATCC 29213) [µg/mL] | MIC P. acnes ATCC 6919 (P. acnes ATCC 6919) [µg/mL] | also measured |
| --- | --- | --- | --- | --- | --- | --- |
| CCOC(=O)c1cccnc1C(=O)OB(c1ccc(C)c(Cl)c1)c1ccc(C)c(Cl)c1 [Compound 30, Bis(3-chloro-4-methylphenyl)borinic Acid 3-(Ethyloxycarbonyl)picolinate Ester] | 76% | 101% | – | – | – | – |
| Cc1ccc(B(OC(=O)c2ncccc2OCCN2CCOCC2)c2ccc(C)c(Cl)c2)cc1Cl [Compound 32, Bis(3-chloro-4-methylphenyl)borinic acid 3-[(2-Morpholinoethyl)oxy]picolinate ester] | 34% | 101% | – | – | – | – |
| CC[C@H]1OC(=O)[C@H](C)[C@@H](O[C@H]2C[C@@](C)(OC)[C@@H](O)[C@H](C)O2)[C@H](C)[C@@H](O[C@@H]2O[C@H](C)C[C@H](N(C)C)[C@H]2O)[C@](C)(O)C[C@@H](C)C(=O)[C@H](C)[C@@H](O)[C@]1(C)O [erythromycin, reference compound] | – | – | – | – | – | MIC ([1]; Staphylococcus epidermidis, ATCC12228): 0.5 µg/mL (≈ 0.681 µM); MIC (S. aureus ATCC 29213; Staphylococcus aureus, ATCC29213): 0.5 µg/mL (≈ 0.681 µM); MIC (P. acnes ATCC 6919; Cutibacterium acnes, ATCC6919): 1 to 2 µg/mL (≈ 1.36 to 2.73 µM) |
| Cc1ccc(B(CCc2ccccc2)OC(=O)c2ncccc2O)cc1Cl [Compound 12, (3-chloro-4-methylphenyl)(phenethyl)borinic acid 3-Hydroxypicolinate ester] | – | – | 1 (≈ 2.63 µM) | 0.5 (≈ 1.32 µM) | 3 (≈ 7.9 µM) | – |
| Cc1ccc(B(OC(=O)c2ncccc2O)c2ccc(C)c(Cl)c2)cc1Cl [Compound 10, Bis(3-chloro-4-methylphenyl)borinic acid 3-hydroxypicolinate ester] | (99%) | (100%) | 1 (≈ 2.5 µM) | 2 (≈ 5 µM) | 0.3 (≈ 0.75 µM) | IC50 (IL-1β): 10.8 µM; IC50 (IL-6): 3.6 µM; Inhibition (%) at 25 μM IL-6 release (IL-6): (80%); Inhibition (%) at 25 μM IL-8 release (IL-8): (122%); IC50 (TNF-α): 8.6 µM |
| Cc1cc(Cl)ccc1B(OC(=O)c1ncccc1O)c1ccc(Cl)cc1C [Compound 11, Bis(2-methyl-4-chlorophenyl)borinic acid 3-Hydroxypicolinate ester] | (103%) | (101%) | 0.25 (≈ 0.625 µM) | 1 (≈ 2.5 µM) | 0.3 (≈ 0.75 µM) | IC50 (IL-1β): 15 µM; IC50 (IL-6): 2.8 µM; Inhibition (%) at 25 μM IL-6 release (IL-6): (102%); Inhibition (%) at 25 μM IL-8 release (IL-8): (122%); IC50 (TNF-α): 14.9 µM |
| O=C(OB(c1ccc(Cl)cc1F)c1c(Cl)ccc(Br)c1F)c1ncccc1O [Compound 13, (3-Bromo-6-chloro-2-fluorophenyl)(2-fluoro-4-chlorophenyl)borinic acid 3-Hydroxypicolinate ester] | – | – | 1 (≈ 2.05 µM) | 2 (≈ 4.11 µM) | 3 (≈ 6.16 µM) | – |
| Cc1ccc(B(OC(=O)c2ncccc2O)c2ccc(O)cc2)cc1Cl [Compound 33, (3-chloro-4-methylphenyl)(4-hydroxyphenyl)borinic acid 3-hydroxypicolinate ester] | 60% | 48% | – | – | – | – |
| O=C(OB(c1ccc(Cl)cc1F)c1c(Cl)ccc(Br)c1F)c1ncccc1O [Compound 34, (3-Bromo-6-chloro-2-fluorophenyl)(4-chloro-2-fluorophenyl)borinic acid 3-hydroxypicolinate ester] | 100% | 101% | – | – | – | Inhibition (%) at 25 μM IL-6 release (IL-6): 108% |
| COc1ccc(Cl)cc1B(OC(=O)c1ncccc1O)c1cccc(Cl)c1 [Compound 15, (2-Methoxy-5-chlorophenyl)(3-chlorophenyl)borinic acid 3-Hydroxypicolinate ester] | – | – | 4 (≈ 9.95 µM) | 4 (≈ 9.95 µM) | 3 (≈ 7.46 µM) | – |
| Cc1ccc(B(OC(=O)c2ncccc2C(=O)O)c2ccc(C)cc2Cl)c(Cl)c1 [Compound 14, Bis(2-Chloro-4-methylphenyl)borinic acid 3-carboxypicolinate ester] | – | – | 4 (≈ 9.34 µM) | 0.125 (≈ 0.292 µM) | 3 (≈ 7.01 µM) | – |
| CC(=O)Nc1ccc(O)c(C(=O)OB(c2cccc(Cl)c2)c2cccc(Cl)c2)n1 [Compound 16, Bis(3-chlorophenyl)borinic acid 6-Acetylamino-3-hydroxypicolinate ester] | – | – | 8 (≈ 18.6 µM) | 0.5 (≈ 1.17 µM) | 10 (≈ 23.3 µM) | – |
| Cc1ccc(B(OC(=O)c2ccc(C(=O)O)cn2)c2ccc(C)c(Cl)c2)cc1Cl [Compound 31, Bis(3-chloro-4-methylphenyl)borinic acid 5-Carboxypicolinate ester] | 80% | 101% | – | – | – | – |
